# US11603355B2, “Charged ion channel blockers and methods for use” (Nocion Therapeutics, Inc., priority 2019, dated 2023)
# Where a name gives a salt, the structure may show the parent alone.
# Experiments:
# [1] = PAMPA membrane permeability assay; assay type: in vitro ADME; details: permeability coefficient, pH 7.4 buffer, GIT lipid, 4 hours incubation
# How it was run: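 Passive diffusion across a GIT-lipid-painted artificial membrane at pH 7.4, with a 50 uM donor stock diluted from DMSO and a 4 h incubation. UV spectra of the donor, acceptor and reference plates were read, and the permeability coefficient was calculated from the AUCs, in 10^−6 cm/s.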
# NaV1.7 [2] = molecular target: T1, NaV1.7 (Homo sapiens, UniProt Q15858); assay: Automated patch clamp (Qube 384), external block of NaV1.7; assay type: cell-based; details: IC50, compound in external solution, HEK293 cells, read-out: Nav1.7 Extracellular Inhibition
# T1 construct: expressed in transfected cells; host or cells: HEK293 (tetracycline-inducible)
# Procedure: NaV1.7 was expressed in HEK293 cells upon induction with tetracycline. Cells were cultured in DMEM containing 10% dialyzed Fetal Bovine Serum (VWR, Radnor, Pa.), 1% Glutamax (VWR, Radnor, Pa.), 1% Penicillin-Streptomycin (VWR, Radnor, Pa.), 100 mg/L Hygromycin (Thermo Fisher Scientific, Waltham, Mass. and 5 mg/L Blasticidin (Alfa Aesar, Haverhill, Mass.). Cells were grown and maintained at 37° C. in a humidified environment containing 10% CO2 in air. Cells were detached from the culture flask for passage and harvested using 0.05% Trypsin-EDTA (Thermo Fisher Scientific, Waltham, Mass.). To induce NaV1.7, cells were induced with tetracycline (0.1-1 μg/mL, IBI Scientific, Peosta, Iowa) the day before recording.
# Before experiments, cells were washed with DPBS (VWR, Radnor, Pa.), digested with Detachin (VWR Radnor, Pa.) and then triturated 10 times in CHO Serum-Free Media (VWR Radnor, Pa.) to resuspend the cells and to break apart cell aggregates. Cells were counted and the final concentration was set at 2-5 million cells per mL.
# The intracellular solution contained the following: 140 mM CsF, 1 mM/5 mM EGTA/CsOH, 10 mM HEPES, 10 mM NaCl, adjusted to pH 7.3 with CsOH, and osmolality to 320 with OSM solution. The external solution contained the following: 145 mM NaCl, 4 mM KCl, 1 mM MgCl2, 2 mM CaCl2), 10 mM HEPES, 10 mM Glucose, adjusted to pH 7.4 with CsOH and osmolality to 305 with OSM solution. The OSM solution was a normal Ringer solution containing (in mM) NaCl 155, HEPES 10, sucrose, KCl 3.5, CaCl2) 1.5, MgCl2 1 adjusted to pH 7.4 with NaOH. All chemicals are from Sigma-Aldrich, St. Louis, Mo. In order to test the degree of internal block by test compounds, the compounds were dissolved in internal solution at the indicated test concentration. […] In order to test the degree of external block by test compounds the compounds were dissolved in external solution at the indicated test concentration.
# Automated Patch Clamps were performed on Qube 384 (Sophion Bioscience, Woburn Mass.) with multihole Qchips at a temperature setting of 22 degrees. The whole cells configuration was formed with default Qube seal and break-in parameter. The membrane potential was held at −100 mV before the voltage protocol began. Two voltage protocols were followed.
# Step 1: Cells were held at −100 mV with a depolarized pulse to −20 mV for 10 ms, the interval was set at 5 s. Currents were corrected by default leak subtraction from every pulse. The duration was set at 5 mins.
# Step 2: Cells were held at −100 mV with a depolarized pulse to −20 mV for 10 ms. The frequency was 5 Hz. Currents were corrected by leak subtraction calculated before step 2. The duration was set at 4 mins.
# After Step 2, the external solution was changed with solutions containing test compounds. Qchips were held at −100 mV without pulsing. The total solution switching time was 8 minutes. After the external solution exchange, cells were recorded using the same procedure as step 2 for 10 minutes.
# Data analysis was performed by Sophion Analyzer. Data were corrected with control cells (Non-Drug). The IC50 data were plotted with DR-plots/Hill function (a dose-response plot with a Hill fit). Representative examples of the invention were tested for extracellular inhibition of NaV 1.7 in the automated patch clamp assay. Activity Range is reported as IC50: “++++” ([…], “+++” (1-3 μM), “++” ([…]) or “+” (>10 μM). The results are presented below.
# NaV1.7 [3] = molecular target: T1, NaV1.7; assay: Automated patch clamp (Qube 384), internal block of NaV1.7; assay type: cell-based; details: IC50, compound in internal solution, HEK293 cells, read-out: Nav1.7 Intracellular Inhibition
# How it was run: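 Tetracycline-induced HEK293 cells, whole-cell Qube recording at 22 degrees; compounds dissolved in internal solution (CsF-based, pH 7.3), exchanged after baseline. Held at −100 mV, 10 ms pulses to −20 mV at 5 Hz for 10 min; remaining current (last 3 points) vs baseline, rundown-corrected with no-drug cells; Hill-fit IC50.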
# T1 sequence (Q15858 whole entry): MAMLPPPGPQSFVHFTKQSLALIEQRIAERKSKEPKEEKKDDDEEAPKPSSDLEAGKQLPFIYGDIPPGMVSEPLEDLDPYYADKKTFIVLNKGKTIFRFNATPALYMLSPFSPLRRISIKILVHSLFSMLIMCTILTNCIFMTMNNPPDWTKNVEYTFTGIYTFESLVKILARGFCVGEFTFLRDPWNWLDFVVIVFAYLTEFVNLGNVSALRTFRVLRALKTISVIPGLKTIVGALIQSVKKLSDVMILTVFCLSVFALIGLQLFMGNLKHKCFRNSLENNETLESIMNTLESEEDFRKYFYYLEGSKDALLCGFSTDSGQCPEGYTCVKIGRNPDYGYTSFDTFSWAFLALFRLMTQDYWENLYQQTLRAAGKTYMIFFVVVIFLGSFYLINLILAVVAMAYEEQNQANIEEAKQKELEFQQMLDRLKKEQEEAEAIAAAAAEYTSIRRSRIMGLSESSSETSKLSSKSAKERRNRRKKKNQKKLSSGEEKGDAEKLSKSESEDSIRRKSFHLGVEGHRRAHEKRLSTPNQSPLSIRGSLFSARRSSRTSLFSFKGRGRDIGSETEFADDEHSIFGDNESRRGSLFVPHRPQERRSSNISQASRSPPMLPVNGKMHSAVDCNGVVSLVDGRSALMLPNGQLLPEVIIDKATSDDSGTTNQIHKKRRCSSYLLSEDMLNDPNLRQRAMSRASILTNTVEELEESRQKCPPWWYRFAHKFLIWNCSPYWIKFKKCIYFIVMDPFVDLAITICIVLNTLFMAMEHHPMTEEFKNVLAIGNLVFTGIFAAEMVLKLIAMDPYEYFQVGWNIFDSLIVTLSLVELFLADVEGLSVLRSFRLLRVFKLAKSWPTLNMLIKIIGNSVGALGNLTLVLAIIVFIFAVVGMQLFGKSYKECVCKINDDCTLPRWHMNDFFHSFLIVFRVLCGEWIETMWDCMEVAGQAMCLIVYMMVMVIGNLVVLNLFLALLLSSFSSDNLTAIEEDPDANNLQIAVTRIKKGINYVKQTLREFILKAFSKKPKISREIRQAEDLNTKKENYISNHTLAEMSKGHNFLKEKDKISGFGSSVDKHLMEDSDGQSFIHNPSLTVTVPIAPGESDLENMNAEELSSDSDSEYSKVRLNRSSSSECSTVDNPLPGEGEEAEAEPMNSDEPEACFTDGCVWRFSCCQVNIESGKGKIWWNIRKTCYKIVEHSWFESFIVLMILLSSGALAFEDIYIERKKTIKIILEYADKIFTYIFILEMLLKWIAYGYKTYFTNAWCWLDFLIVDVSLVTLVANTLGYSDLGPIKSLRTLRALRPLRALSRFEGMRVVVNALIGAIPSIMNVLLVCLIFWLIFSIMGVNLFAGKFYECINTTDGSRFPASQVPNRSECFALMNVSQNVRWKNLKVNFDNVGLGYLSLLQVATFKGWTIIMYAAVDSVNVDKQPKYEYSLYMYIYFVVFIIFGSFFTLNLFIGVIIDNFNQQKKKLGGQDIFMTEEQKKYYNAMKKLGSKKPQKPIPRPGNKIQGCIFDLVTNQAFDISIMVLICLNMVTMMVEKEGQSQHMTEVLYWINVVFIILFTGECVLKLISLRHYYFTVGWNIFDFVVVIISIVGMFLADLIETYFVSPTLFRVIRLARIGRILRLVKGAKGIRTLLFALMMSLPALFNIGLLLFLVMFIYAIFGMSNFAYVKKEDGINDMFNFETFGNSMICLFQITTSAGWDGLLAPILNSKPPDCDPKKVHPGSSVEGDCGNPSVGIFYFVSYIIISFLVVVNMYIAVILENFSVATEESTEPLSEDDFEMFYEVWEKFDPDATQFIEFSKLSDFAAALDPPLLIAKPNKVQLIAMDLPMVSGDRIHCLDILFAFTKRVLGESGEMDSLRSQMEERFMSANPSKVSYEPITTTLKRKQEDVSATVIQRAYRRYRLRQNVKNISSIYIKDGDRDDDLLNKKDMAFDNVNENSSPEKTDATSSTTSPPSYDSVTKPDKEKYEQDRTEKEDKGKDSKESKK
SMILES,PAMPA (10^−6 cm/s) [1],IC50 (NaV1.7 [2]) [nM],IC50 (NaV1.7 [3]) [nM]
"Cc1cccc(C)c1NC(=O)C[N+]1(Cc2ccccc2)CCCC(C(N)=O)C1.[Br-] (mixture of isomers) [Compound 53A, 1-benzyl-3-carbamoyl-1-(2-((2,6-dimethylphenyl)amino)-2-oxoethyl) piperidin-1-ium bromide]",+ (“+” (<0.1 10^−6 cm/s)),> 10000,300 to 1000
"COC(=O)c1ccc(C[N+]2(CC(=O)Nc3c(C)cccc3C)CCCCC2)cc1.[Br-] [Compound 36A, 1-(2-((2,6-dimethylphenyl)amino)-2-oxoethyl)-1-(4-(methoxycarbonyl)benzyl) piperidin-1-ium bromide]",+ (“+” (<0.1 10^−6 cm/s)),> 10000,3000 to 10000
"Cc1cccc(C)c1C(=O)OCC[N+]1(Cc2ccccc2)CCCCCC1.[Br-] [Compound 82A, 1-benzyl-1-(2-((2,6-dimethylbenzoyl)oxy)ethyl) azepan-1-ium bromide]",+ (“+” (<0.1 10^−6 cm/s)),3000 to 10000,300 to 1000
"CCCOC(=O)C1CCC[N+](CC(=O)Nc2c(C)cccc2C)(Cc2ccccc2)C1.[Br-] (stereo not drawn) [Compound 47A, 1-benzyl-1-(2-((2,6-dimethylphenyl)amino)-2-oxoethyl)-3-(propoxycarbonyl) piperidin-1-ium bromide]",+ (“+” (<0.1 10^−6 cm/s)),1000 to 3000,1000 to 3000
"CC[N+](CC)(CCCc1ccccc1)CC(=O)Nc1c(C)cccc1C.[Br-] [Compound 86A, N-(2-((2,6-dimethylphenyl)amino)-2-oxoethyl)-N, N-diethyl-3-phenylpropan-1-aminium bromide]",+ (“+” (<0.1 10^−6 cm/s)),> 10000,1000 to 3000
"Cc1cccc(C)c1NC(=O)C[N+]1(Cc2ccccc2)CCCC(C(=O)OC(C)C)C1 (mixture of isomers) [Compound 46A, 1-benzyl-1-(2-((2,6-dimethylphenyl)amino)-2-oxoethyl)-3-(isopropoxycarbonyl) piperidin-1-ium trifluoroacetate salt]",+ (“+” (<0.1 10^−6 cm/s)),3000 to 10000,300 to 1000
"COC(=O)c1cccc(C[N+]2(CC(=O)Nc3c(C)cccc3C)CCCCC2)c1.[Br-] [Compound 35A, 1-(2-((2,6-dimethylphenyl)amino)-2-oxoethyl)-1-(3-(methoxycarbonyl)benzyl) piperidin-1-ium bromide]",+ (“+” (<0.1 10^−6 cm/s)),> 10000,1000 to 3000
CCOc1cccc(C)c1NC(=O)C[N+]1(Cc2ccccc2)CCCCCC1.[Br-] [Compound 77A],+ (“+” (<0.1 10^−6 cm/s)),1000 to 3000,300 to 1000
Cc1cccc(C)c1NC(=O)C[N+]1(Cc2ccccc2)CCCC(C(=O)N2CCCC2)C1 (stereo not drawn) [Compound 62A],+ (“+” (<0.1 10^−6 cm/s)),> 10000,300 to 1000
"COC(=O)c1ccccc1C[N+]1(CC(=O)Nc2c(C)cccc2C)CCCCC1.[Br-] [Compound 37A, 1-(2-((2,6-dimethylphenyl)amino)-2-oxoethyl)-1-(2-(methoxycarbonyl)benzyl) piperidin-1-ium bromide]",+ (“+” (<0.1 10^−6 cm/s)),> 10000,300 to 1000
CNC(=O)C1CCC[N+](CC(=O)Nc2c(C)cccc2C)(Cc2ccccc2)C1 (stereo not drawn) [Compound 55A],+++ (“+++” (2.0-10.010^−6 cm/s)),> 10000,300 to 1000
"Cc1cccc(C)c1N1CCC([N+]2(Cc3ccccc3)CCCCC2)C1=O.[Br-] (stereo not drawn) [Compound 89A, 1-benzyl-1-(1-(2,6-dimethylphenyl)-2-oxopyrrolidin-3-yl)piperidin-1-ium bromide]",++ (“++” (0.1-2.0 10^−6 cm/s)),> 10000,1000 to 3000
"Cc1cccc(C)c1N1CCCC([N+]2(Cc3ccccc3)CCCC2)C1=O.[Br-] (stereo not drawn) [Compound 91A, 1-benzyl-1-(1-(2,6-dimethylphenyl)-2-oxopiperidin-3-yl) pyrrolidin-1-ium bromide]",+ (“+” (<0.1 10^−6 cm/s)),> 10000,1000 to 3000
"COC(=O)C1CC[N+](CC(=O)Nc2c(C)cccc2C)(Cc2ccccc2)CC1.[Br-] (stereo not drawn) [Compound 44A, 1-benzyl-1-(2-((2,6-dimethylphenyl)amino)-2-oxoethyl)-4-(methoxycarbonyl) piperidin-1-ium bromide]",+ (“+” (<0.1 10^−6 cm/s)),> 10000,< 300
"Cc1cccc(C)c1NC(=O)C[N+]1(Cc2ccccc2)CCCC(F)(F)C1.[Br-] (stereo not drawn) [Compound 32A, 1-benzyl-1-(2-((2,6-dimethylphenyl)amino)-2-oxoethyl)-3,3-difluoropiperidin-1-ium bromide]",+ (“+” (<0.1 10^−6 cm/s)),> 10000,300 to 1000
Cc1cccc(C)c1NC(=O)C[N+]1(Cc2ccccc2)CCCC(C(=O)N2CCCCC2)C1 (stereo not drawn) [Compound 63A],+ (“+” (<0.1 10^−6 cm/s)),3000 to 10000,300 to 1000
Cc1cccc(C)c1N1CCC([N+]2(Cc3ccccc3)CCCCCCC2)C1=O.[Br-] (stereo not drawn) [Compound 90A],+ (“+” (<0.1 10^−6 cm/s)),3000 to 10000,300 to 1000
"CCC(=O)Oc1cccc(C)c1NC(=O)C[N+]1(Cc2ccccc2)CCCCCC1.[Br-] [Compound 80A, 1-benzyl-1-(2-((2-methyl-6-(propionyloxy)phenyl)amino)-2-oxoethyl) azepan-1-ium bromide]",+ (“+” (<0.1 10^−6 cm/s)),> 10000,300 to 1000
"CCOC(=O)C1CCC[N+](CC(=O)Nc2c(C)cccc2C)(Cc2ccccc2)C1.[Br-] (stereo not drawn) [Compound 45A, 1-benzyl-1-(2-((2,6-dimethylphenyl)amino)-2-oxoethyl)-3-(ethoxycarbonyl) piperidin-1-ium bromide]",+ (“+” (<0.1 10^−6 cm/s)),> 10000,300 to 1000
"Cc1cccc(F)c1NC(=O)C[N+]1(Cc2ccccc2)CCCCCC1.[Br-] [Compound 69A, 1-benzyl-1-(2-((2-fluoro-6-methylphenyl)amino)-2-oxoethyl)azepan-1-ium bromide]",++ (“++” (0.1-2.0 10^−6 cm/s)),3000 to 10000,300 to 1000
"Cc1cccc(C)c1N(C)C(=O)C[N+]1(Cc2ccccc2)CCCCCC1 [Compound 38A, 1-benzyl-1-(2-((2,6-dimethylphenyl) (methyl)amino)-2-oxoethyl) azepan-1-ium formate]",+ (“+” (<0.1 10^−6 cm/s)),> 10000,1000 to 3000
"CCCOC(=O)N1CCC[N+](CC(=O)Nc2c(C)cccc2C)(Cc2ccccc2)CC1.[Br-] (stereo not drawn) [Compound 68A, 1-benzyl-1-(2-((2,6-dimethylphenyl)amino)-2-oxoethyl)-4-(propoxycarbonyl)-1,4-diazepan-1-ium bromide]",+ (“+” (<0.1 10^−6 cm/s)),> 10000,300 to 1000
